Source: ChEMBL document CHEMBL1201862, “PubChem BioAssay data set” (2004)
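The compound was tested at five concentrations on cells cultured in 96-well plates, with a 48-hour exposure period. GI50 marks 50% less growth.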 Active and inactive are the calls of the source. Cut-off read from the data, not from the text of the source: active = GI50 up to about 1.1 µM and inactive = higher.

Experiments:
Assay in all cases: DTP human tumour cell line panel, 48 h
ACHN = test system: ACHN
CCRF-CEM = test system: CCRF-CEM
EKVX = test system: EKVX
Hs-578T = test system: Hs-578T
MDA-MB-435 = test system: MDA-MB-435
Malme-3M = test system: Malme-3M
NCI-H23 = test system: NCI-H23
NCI-H460 = test system: NCI-H460
PC-3 = test system: PC-3
RPMI-8226 = test system: RPMI-8226
SK-MEL-2 = test system: SK-MEL-2
SK-MEL-5 = test system: SK-MEL-5
SK-OV-3 = test system: SK-OV-3
UACC-62 = test system: UACC-62
SNB-75 = test system: SNB-75
SF-539 = test system: SF-539
RXF 393 = test system: RXF 393

Measured: GI50

O=c1[nH]c(=O)n(COCCO)cc1-c1ccccc1
inactive: ACHN > 100 µM | CCRF-CEM > 100 µM | EKVX > 100 µM | Hs-578T > 100 µM | MDA-MB-435 > 100 µM | Malme-3M > 100 µM | NCI-H23 > 100 µM | NCI-H460 > 100 µM | PC-3 > 100 µM | RPMI-8226 > 100 µM | SK-MEL-2 > 100 µM | SK-MEL-5 > 100 µM | SK-OV-3 > 100 µM | UACC-62 > 100 µM

CCCCC(=O)Nc1ccc2c(C)cc(-c3ccc(-c4cc(-c5ccc(C)cc5)cc(-c5ccc(-c6cc(C)c7ccc(NC(=O)CCCC)nc7n6)cc5)n4)cc3)nc2n1
inactive: ACHN > 100 µM | CCRF-CEM > 100 µM | EKVX > 100 µM | MDA-MB-435 > 100 µM | Malme-3M > 100 µM | NCI-H23 > 100 µM | NCI-H460 > 100 µM | PC-3 > 100 µM | RPMI-8226 > 100 µM | SK-MEL-2 > 100 µM | SK-MEL-5 > 100 µM | SK-OV-3 > 100 µM | SNB-75 > 100 µM | UACC-62 > 100 µM

N#CC(C#N)=c1c(=O)c2c3ccccc3cc3cccc1c32
inactive: ACHN 37.1 µM | CCRF-CEM > 100 µM | Hs-578T 31.5 µM | MDA-MB-435 > 100 µM | NCI-H23 > 100 µM | NCI-H460 > 100 µM | PC-3 55.7 µM | RPMI-8226 > 100 µM | SK-MEL-2 92.3 µM | SK-MEL-5 > 100 µM | SK-OV-3 > 100 µM | SNB-75 > 100 µM | UACC-62 > 100 µM

Cc1cc(=O)c2cc(/N=C/c3ccc([N+](=O)[O-])o3)ccc2o1
inactive: ACHN 91.6 µM | CCRF-CEM 41.1 µM | EKVX > 100 µM | Hs-578T > 100 µM | MDA-MB-435 44.9 µM | Malme-3M 30 µM | NCI-H23 > 100 µM | NCI-H460 > 100 µM | RPMI-8226 35.5 µM | SF-539 > 100 µM | SK-MEL-2 > 100 µM | SK-MEL-5 > 100 µM | SK-OV-3 > 100 µM | SNB-75 > 100 µM | UACC-62 56.1 µM

O=c1c2ccccc2n2c(-c3ccccc3O)nnc2n1-c1ccccc1
inactive: ACHN > 100 µM | CCRF-CEM 67.3 µM | EKVX > 100 µM | MDA-MB-435 > 100 µM | Malme-3M > 100 µM | NCI-H23 > 100 µM | NCI-H460 > 100 µM | PC-3 > 100 µM | RXF 393 > 100 µM | SF-539 > 100 µM | SK-MEL-2 > 100 µM | SK-MEL-5 > 100 µM | SK-OV-3 > 100 µM | SNB-75 > 100 µM | UACC-62 > 100 µM

COc1ccc(C2=NN=C3C(c4ccccc4)=Nc4ccccc4N3C2)cc1
inactive: ACHN 14.1 µM | CCRF-CEM 2.16 µM | EKVX > 100 µM | MDA-MB-435 27.2 µM | Malme-3M 25.2 µM | NCI-H23 21 µM | NCI-H460 22.1 µM | PC-3 31.6 µM | RPMI-8226 38.8 µM | RXF 393 10.9 µM | SF-539 28.1 µM | SK-MEL-2 22.6 µM | SK-MEL-5 21.3 µM | SK-OV-3 80.2 µM | UACC-62 29.2 µM

CN1CCN(C(=S)N(C(=O)c2ccco2)c2ccccc2)CC1
inactive: ACHN > 100 µM | CCRF-CEM > 100 µM | Hs-578T > 100 µM | MDA-MB-435 > 100 µM | Malme-3M > 100 µM | NCI-H23 > 100 µM | NCI-H460 > 100 µM | RPMI-8226 > 100 µM | RXF 393 > 100 µM | SK-MEL-2 > 100 µM | SK-MEL-5 > 100 µM | SNB-75 > 100 µM | UACC-62 > 100 µM

CCCCCCNc1n[nH]c(=O)c2c1nnn2Cc1ccccc1
inactive: ACHN > 100 µM | CCRF-CEM > 100 µM | EKVX > 100 µM | MDA-MB-435 > 100 µM | Malme-3M > 100 µM | NCI-H23 > 100 µM | NCI-H460 > 100 µM | PC-3 > 100 µM | RPMI-8226 > 100 µM | SK-MEL-2 > 100 µM | SK-MEL-5 > 100 µM

Cc1ccc(S(=O)(=O)NC(=O)NC(Cc2ccc(O)c(O)c2)C(=O)O)cc1 (stereo unspecified)
inactive: ACHN > 100 µM | CCRF-CEM 25.1 µM | EKVX > 100 µM | MDA-MB-435 > 100 µM | Malme-3M > 100 µM | NCI-H23 > 100 µM | NCI-H460 > 100 µM | PC-3 > 100 µM | RPMI-8226 55.7 µM | RXF 393 14 µM | SK-MEL-2 > 100 µM | SK-MEL-5 > 100 µM | UACC-62 > 100 µM

COC(=O)/C=C/CCC#Cc1ccccc1C#CCC/C=C/C(=O)OC
inactive: ACHN 23.7 µM | CCRF-CEM 4.48 µM | EKVX 36.1 µM | MDA-MB-435 6 µM | Malme-3M 3.9 µM | NCI-H23 4.78 µM | NCI-H460 12.4 µM | PC-3 14.3 µM | RXF 393 4.49 µM | SF-539 10.5 µM | SK-OV-3 21.7 µM | SNB-75 2.89 µM | UACC-62 12.6 µM
